Source: paper PMC11875179, “A fucose-binding superlectin from Enterobacter cloacae with high Lewis and ABO blood group antigen specificity” (The Journal of Biological Chemistry, 2024)

B1: EclA-L (EclA-M14A), full-length Enterobacter cloacae lectin A with the second start codon mutated (natural protein)
chain: MAKFFATLSQESDASENLIWSGKVDAKNAEGTNTGVALKAGEIITILASGWARNGSENFALTAPQGRIPREGETLTLRNPSLQARLGNENYPVGNHKYRWSVPAEGTLTLFFADGKDQYKDNAGEFSVEVYREADISAAAAAPFEDLTNFERDNWNNWQAGPAGHDLYLVDASTRAVEFITRPNKNHAGEILKKTLTGLTAGYEYTWTVKIARIIGKYEAPKVSLRADGKDISAPLELKQANEWVTLSGKFKATGSQAELAVVSHVSASMGNDFRIKELKIKG
notes: EclA (Enterobacter cloacae lectin A), E. cloacae subsp. cloacae ATCC 13047, ECL_04191, 283 aa, with M14A; Tag-free, pET22b; Made to have one protein species only (second ATG at codon 14 removed); also called EclA-L (M14A); source: E. coli, expressed and purified as reported for EclA
B2: EclA-N-tag, N-terminally His6-tagged EclA N terminus (amino acids 2-140) (domain or fragment)
chain: AKFFATLSQESDASENLIWSGKVDAKNAEGTNTGVALKAGEIITILASGWARNGSENFALTAPQGRIPREGETLTLRNPSLQARLGNENYPVGNHKYRWSVPAEGTLTLFFADGKDQYKDNAGEFSVEVYREADISAAA
notes: EclA, E. cloacae subsp. cloacae ATCC 13047, residues 2-140, based on EclA-L (M14A); also called N-terminal domain of EclA; not shown: His6, N-terminal, kept
B3: EclA-C, native EclA C terminus (amino acids 140-283) (domain or fragment)
chain: MAAPFEDLTNFERDNWNNWQAGPAGHDLYLVDASTRAVEFITRPNKNHAGEILKKTLTGLTAGYEYTWTVKIARIIGKYEAPKVSLRADGKDISAPLELKQANEWVTLSGKFKATGSQAELAVVSHVSASMGNDFRIKELKIKG
notes: EclA, E. cloacae subsp. cloacae ATCC 13047, stated as amino acids 140-283 (144 aa); Tag-free; a selenomethionine-labelled form was also crystallised; also called C-terminal domain of EclA; source: E. coli BL21(DE3), purified (fucose-coupled sepharose, L-fucose elution)

Key:
[1] = target: T1, Enterobacter cloacae lectin A (EclA) (Enterobacter cloacae, UniProt A0A0H3CQ33); test: competitive fluorescence polarization; thermal shift (Tm […] to […] °C); format: binding; design: gene ECL_04191; full-length EclA and EclA-C (amino acids 140–283)
T1 sequence (A0A0H3CQ33 entry or part of it): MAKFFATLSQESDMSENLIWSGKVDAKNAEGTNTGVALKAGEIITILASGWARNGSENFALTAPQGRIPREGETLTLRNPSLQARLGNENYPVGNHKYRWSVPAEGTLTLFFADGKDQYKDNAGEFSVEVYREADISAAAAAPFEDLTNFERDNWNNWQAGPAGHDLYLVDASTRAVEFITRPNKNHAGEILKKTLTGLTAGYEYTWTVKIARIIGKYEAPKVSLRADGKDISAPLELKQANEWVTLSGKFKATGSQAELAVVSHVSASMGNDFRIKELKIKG

[2] = target: T1, Enterobacter cloacae lectin A (EclA); test: competitive fluorescence polarization displacement of […]; format: binding; design: gene ECL_04191; full-length EclA and EclA-C (amino acids 140–283)
[3] = target: the molecule itself; test: dynamic light scattering; Zetasizer Nano-ZS; 100 uM EclA-L or 200 uM EclA-N-tag and EclA-C in TBS/Ca (20 mM Tris, 137 mM NaCl, 2.6 mM KCl, pH 7.4, 1 mM CaCl2), 25 C; molecular weight estimated from the hydrodynamic radius

Row | Molecule | IC50 [2] | stoichiometry N [3] | further results
1 | C[C@@H]1OC(O)[C@@H](O)[C@H](O)[C@@H]1O (stereo partly drawn) [compound 1, L-fucose] |  |  | IC50 [1]: 4 to 4.7 mM
2 | CO[C@@H]1O[C@@H](C)[C@@H](O)[C@@H](O)[C@@H]1O [compound 12, methyl α-L-fucoside] | 1.3 to 1.4 mM |  | 
3 | CO[C@H]1O[C@@H](C)[C@@H](O)[C@@H](O)[C@@H]1O [compound 13, methyl β-L-fucoside] | 1.5 to 1.8 mM |  | 
4 | B1 |  | 2 | 
5 | B2 |  | 2 | 
6 | B3 |  | 2 | 
